Experiments:
[1] = molecular target: T1, Methylated-DNA--protein-cysteine methyltransferase (Homo sapiens) (UniProt P16455); settings: HT-29
T1 sequence (whole entry): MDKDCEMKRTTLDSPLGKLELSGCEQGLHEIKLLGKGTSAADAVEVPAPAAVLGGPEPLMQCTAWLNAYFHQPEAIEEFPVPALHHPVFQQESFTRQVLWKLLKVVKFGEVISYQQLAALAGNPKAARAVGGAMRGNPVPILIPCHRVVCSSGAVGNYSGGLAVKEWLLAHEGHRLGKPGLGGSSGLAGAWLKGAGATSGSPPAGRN
Description: AGT-inactivating activity was determined by 50% inactivation in HT-29 cell free extract upon incubation for 30 min

[2] = molecular target: T1, Methylated-DNA--protein-cysteine methyltransferase (Homo sapiens); settings: HT-29; remark: listed apart in the source
Description: AGT-inactivating activity was determined by 50% inactivation in HT-29 cells upon incubation for 4 h

| Structure (SMILES) | ED50 [1] [nM] | ED50 [2] [nM] |
| --- | --- | --- |
| Nc1ncnc(OCc2ccccc2)c1[N+](=O)[O-] | 28000 | 8000 |
| CNc1nc(OCc2ccccc2)c2[nH]cnc2n1 | 160000 | 60000 |
| Nc1nc(N)nc(OCc2ccccc2)n1 | 4000 | 1000 |
| Oc1nc(OCc2ccccc2)c2[nH]cnc2n1 | 60000 | 35000 |
| Cc1nc(N)nc(OCc2ccccc2)c1[N+](=O)[O-] | 400 | 60 |
| Fc1nc(OCc2ccccc2)c2[nH]cnc2n1 | 48000 | 12000 |
| Nc1nc(N)c(N=O)c(OCc2ccccc2)n1 | 60 | 20 |
| Nc1ncc([N+](=O)[O-])c(OCc2ccccc2)n1 | 400 | 50 |
| CN(C)c1nc(OCc2ccccc2)c2[nH]cnc2n1 | 200000 | 110000 |
| Nc1cc(OCc2ccccc2)nc(N)n1 | 15000 | 5000 |

More lines, now with the values ahead:

| ED50 [1] [nM] | ED50 [2] [nM] | Structure (SMILES) |
| --- | --- | --- |
| 2000 | 800 | Nc1nc(N)c(Br)c(OCc2ccccc2)n1 |
| 70 | 60 | Nc1nc(OCc2ccccc2)c2[nH]nnc2n1 |
| 65000 | 11000 | CC(=O)Nc1nc(OCc2ccccc2)c2[nH]c(O)nc2n1 |
| 400 | 250 | Nc1nc(OCc2ccccc2)c2[nH]c(C(F)(F)F)nc2n1 |
| 80 | 60 | Nc1nc(OCc2ccccc2)c2[nH]c(Br)nc2n1 |
| 300 | 100 | Cc1nc2[nH]c(N)nc(OCc3ccccc3)c-2n1 |
| 400 | 300 | Nc1nc(N)c(N)c(OCc2ccccc2)n1 |
| 700 | 2000 | Nc1nc(OCc2ccccc2)c2[nH]c(N)nc2n1 |
| 25000 | 45000 | Oc1nc(OCc2ccccc2)c2[nH]c(O)nc2n1 |
| 300 | 150 | Nc1nc(OCc2ccccc2)c2[nH]c(O)nc2n1 |
